Data set [1] has as its system MF CD34+ cells (pre-LSC). The experiment in a line: SL/M2 stromal co-culture, clonogenic survival and self-renewal (replating) assays, myelofibrosis. The data set is classed as cell-based, human. The note with it: imetelstat only (5 uM in b222), compared with normal bone marrow; for self-renewal capacity (replating) of MF CD34+ cells (pre-LSC): p<0.001; for survival of MF CD34+ cells (pre-LSC): p<0.01. The source says:
Lentiviral human wild-type and mutant ADAR1^E912A (pCDH-EF1-T2A-copGFP) and shRNA targeting ADAR1 were produced according to published protocols^27,37. In Vitro MPN-SPC and LSC Survival and Self-Renewal Assays with Imetelstat To assess MPN progenitor and LSC survival and self-renewal in vitro, human primary CD34^+ cells selected from BC CML (n=5), MF (n=9) or age matched normal bone marrow (a-NBM, n=4) were co-cultured with SL/M2 stromal cells for 7-14 days, and then treated with imetelstat alone or combined with dasatinib for BC CML or Pacritinib for MF. Colony forming and replating assays were performed as previously described^32.
To assess MPN progenitor and LSC survival and self-renewal in vitro, human primary CD34^+ cells selected from BC CML (n=5), MF (n=9) or age matched normal bone marrow (a-NBM, n=4) were co-cultured with SL/M2 stromal cells for 7-14 days, and then treated with Imetelstat alone or combined with dasatinib for BC CML or Pacritinib for MF. Colony forming and replating assays were performed as previously described^32,33.
FIG. 3A. A schematic illustration of SL/M2 stromal co-cultures established to quantify in vitro MPN-SPC and LSC survival and self-renewal. Human primary CD34^+ cells selected from BC CML (n=5), MF (n=9) or age matched normal bone marrow (a-NBM, n=4) were co-cultured with SL/M2 stromal cells for 7-14 days. While BC CML stromal co-cultures were treated with increasing doses of imetelstat with or without dasatinib, MF stromal co-cultures were treated with imetelast with or without pacritinib.
FIG. 3D. Imetelstat was used at concentrations ranging from 1 to 10 μM to treat aged normal bone marrow (aNBM, n=4, dark blue) compared with myelofibrosis (MF, light blue, n=9) in stromal co-cultures followed by clonogenic survival (upper panel) and self-renewal (lower panel) assays (**p<0.01, ***p<0.001).
FIG. 3E. Imetelstat was used at concentrations ranging from 1 to 10 μM alone or in combination with pacritinib (5 nM) to treat aged normal bone marrow (a-NBM, n=4, blue) compared with MF (green, n=9) in stromal co-cultures followed by clonogenic survival (upper panel) and self-renewal (lower panel) assays.

Data set [2] has as its system LSC. The experiment in a line: Serial transplantation of BC CML LSC mouse model (LSC self-renewal). The data set is classed as in vivo, mice. The protocol:
FIG. 4H. Self-renewal capacity of human progenitor cells was evaluated in serially transplanted mouse models. FACS analysis of percentage of live human CD34^+CD38^+Lin^− progenitor cells following serial engraftment of cells derived from mice treated with vehicle (red), mismatch (blue) or imetelstat (green).
FIG. 4I. Kaplan-Meier survival curves of mice transplanted with CD34^+ cells selected from imetelstat treated mouse BM (green) compared with mismatch controls (blue).

Data set [3] has as its system telomere length. The experiment in a line: FlowFish telomere length assay in LSC mouse models. It counts as in vivo, human. Conditions: imetelstat compared with mismatch control; p<0.05, t test, ANOVA. As to the method:
Telomere length was determined using the Telomere PNA Kit/FITC for Flow Cytometry (Dako, Cat #K5327) with a MACSQuant10 and analyzed with FlowJo software. The Relative Telomere Length (RTL) was calculated by dividing the mean fluorescence intensity (MFI) of the test sample G0/G1 population by the MFI of the normal peripheral blood reference G0/G1 population using the Cycletest™ Plus DNA Kit (BD, Cat #340242). Telomerase activity was determined using the TRAPeze Kit RT Telomerase Detection Kit (Millipore, Catalog No. S7710).
Samples were selected from engrafted mouse bone marrow or spleen with human CD45+ immunomagnetic beads (Miltenyi). Telomere length was determined by using the Telomere PNA Kit/FITC for Flow Cytometry (Dako, Cat #K5327). Samples were run on the MACSQuant10 and analyzed with FlowJo software. The Relative Telomere Length (RTL) was calculated. The 1301 cell line was utilized as control cells. The DNA index was determined with the (BD Cycletest™ Plus DNA Kit, Cat #340242). The DNA index was obtained by dividing the MFI of the test sample G0/G1 population by the WI of the normal reference G0/G1 population. Human peripheral blood mononuclear cells were used as “the normal reference G0/G1 population” for calculating the DNA index. Telomerase activity was determined by using TRAPeze Kit RT Telomerase Detection Kit (Millipore, Catalog No. S7710). […]

Data set [4] concerns ABL1. Put plainly: ABL1 expression in human CD45+ cells from treated BC CML mice. It counts as in vivo. The note with it: p=0.02. From the text:
FIG. 5F. Boxplot depicting Log 2 (cpm) expression of ABL1 by RNA-seq analysis of human CD45^+ cells isolated from vehicle (red), mismatch control (blue) and imetelstat (green) treated BC CML mouse cells (Student's t-test: vehicle: p=0.037, imetelstat: p=0.02).

Data set [5] concerns ADAR1p150. The experiment in a line: ADAR1p150 expression in human CD45+ cells from treated BC CML mice. The data set is classed as in vivo. Conditions: p=0.016. From the text:
FIG. 5G. Boxplot depicting Log 2 (cpm) expression of ADAR1p150 by RNA-seq of human CD45^+ cells isolated from vehicle (red), mismatch control (blue) and imetelstat (green) treated BC CML mouse cells. The p-values from Student's t-tests are shown (Student's t-test: vehicle: p=0.337, imetelstat tx: p=0.016).

Data set [6] in a line: Tolerability (change in percent body weight) in xenograft models. Conditions: mice transplanted with CB, BC CML or MF progenitors. The data set is classed as in vivo. From the text: FIG. 8A graphically illustrates data showing the change in percent body weight in mice transplanted with cord blood (CB) treated with vehicle (black), mismatch control (blue) or imetelstat (red);
FIG. 8B graphically illustrates data showing the change in percent body weight in mice transplanted with BC CML treated with vehicle (black), mismatch control (blue) or imetelstat (red);
FIG. 8C graphically illustrates data showing the change in percent body weight in mice transplanted with myelofibrosis (MF) progenitors treated with vehicle (black), mismatch control (blue) or imetelstat (red);

In the case of imetelstat, the “self-renewal capacity (replating) of MF CD34+ cells (pre-LSC)” value in data set [1] is listed as “decrease”; in data set [1] (listed as Imetelstat) it was “significantly inhibited”. The entries for the “survival of MF CD34+ cells (pre-LSC)” value in data set [1] and in data set [1] (listed as Imetelstat) were “decrease” and “significantly inhibited”, respectively. Moreover, the “LSC engraftment after serial transplantation” value in data set [2] (compared with mismatch control treatment, p=0.04) is given as “significantly less”. Further, in data set [2] (compared with mismatch controls, p=0.05), the “survival rates of serially transplanted mice (Kaplan-Meier)” value is given as “longer”. Further, the “telomere length (FlowFish assay)” value in data set [3] is listed as “normalization of telomere length”. Further, the ABL1 expression result in data set [4] is “significantly reduced”. Moreover, in data set [5], the ADAR1p150 expression result is listed as “significantly reduced”. Besides, in data set [6], the tolerability result is given as “well tolerated”.

(Values after patent publication US20240108734A1, “METHODS FOR TREATING AND AMELIORATING CANCER” (The Regents of the University of California, priority 2021, published 2024).)
